Laboratory results taken from patent US9670162B2, “Mitochondrial aldehyde dehyrogenase-2 modulators and methods of use thereof” (The Board of Trustees of the Leland Stanford Junior …, priority 2013, dated 2017).
Substitutions are numbered along the chain they refer to.

Columns and labels:
[1] = target: T1, human ALDH2*2 recombinant mutant enzyme (E487K) (Homo sapiens, UniProt P05091, E504K); test: ALDH2 enzymatic assay (NADH at 340 nm), recombinant mutant enzyme; assay type: biochemical; parameters: key: −: no activation or inhibition; +: activation less than control 1; ++: activation similar to control 1, within 10%; +++: activation more than control 1 and less than control (compound 161); ++++: activation similar to compound 161, within 10%; conditions: activation relative to benchmarks control 1 and compound 161
T1 construct: His-tag (pTrcHis vector) (N); made in house; host or cells: E. coli BL21
T1 sequence (P05091 18-517 E504K): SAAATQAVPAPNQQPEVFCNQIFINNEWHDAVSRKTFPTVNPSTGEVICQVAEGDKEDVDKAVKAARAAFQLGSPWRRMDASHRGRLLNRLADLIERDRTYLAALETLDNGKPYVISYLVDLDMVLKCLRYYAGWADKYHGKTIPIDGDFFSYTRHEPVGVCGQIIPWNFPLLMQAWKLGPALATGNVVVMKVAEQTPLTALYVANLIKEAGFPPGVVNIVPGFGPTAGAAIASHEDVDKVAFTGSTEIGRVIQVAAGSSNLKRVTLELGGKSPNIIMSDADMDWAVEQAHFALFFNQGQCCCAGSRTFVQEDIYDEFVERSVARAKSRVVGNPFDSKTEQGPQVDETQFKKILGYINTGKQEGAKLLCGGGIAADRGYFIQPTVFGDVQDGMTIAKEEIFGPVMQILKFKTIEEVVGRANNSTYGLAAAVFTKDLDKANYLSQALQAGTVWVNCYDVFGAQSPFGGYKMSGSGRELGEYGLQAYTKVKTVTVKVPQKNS
Source text: (§1) ALDH2 catalyzes the oxidative reaction of substrate acetaldehyde to acetic acid using NAD^+ as a cofactor. Enzymatic activity, or catalytic rate, of aldehyde dehydrogenase (ALDH2) can be measured spectrophotometrically at UV wavelength λ340 nm by the accumulation of reduced product NADH derived from NAD^+. […] This method is well-established in the literature [e.g. D. K. Rex, W. F. Bosron, J. E. Smialek, T. K. Li, Alcohol Clin Exp Res 9, 147 (1985)].
(§2) Full-length wild type human ALDH2 cDNA was purchased from ATCC (No. MGC-1806. GenBank ID: BC002967). The 18-amino acid mitochondria transport signal sequence was removed by PCR and cloned into the NheI/HindIII sites of a His-tag vector, pTrcHis, using standard molecular cloning techniques. The human ALDH2* cDNA construct containing the Asian E487K mutation was obtained by site-directed mutagenesis to create the E487K substitution of the wild type ALDH2. Both human clones were designed to express a recombinant protein with the His-tag at the N-terminus of the protein. For the co-expression experiments of human ALDH2 wild type and ALDH2*2 heterotetramers, a wild type ALDH2 gene and a ALDH2 E487K gene were inserted separately into the two multiple cloning sites of pETDuet-1 vector. (Novagen, Calif., USA). All the vectors were transformed into BL21 E. coli host cells and subjected to 0.5 mM IPTG induction for protein expression at 30° C. Purifications of the recombinant proteins by affinity nickel columns (HisTrap, GE Healthy Science, USA) were carried out using standard protocols according to manufacturer's instructions (Novagen, USA).
(§3) Control 1 and compound 161 are used as benchmarks and the symbols have the following representation: […]

[2] = target: T2, human ALDH2 wild type (Homo sapiens, UniProt P05091); test: ALDH2 enzymatic assay (NADH at 340 nm), recombinant wild type enzyme; assay type: biochemical; parameters: key: −: no activation or inhibition; +: activation less than control 1; ++: activation similar to control 1, within 10%; +++: activation more than control 1 and less than control (compound 161); ++++: activation similar to compound 161, within 10%; conditions: activation relative to benchmarks control 1 and compound 161
T2 construct: His-tag (pTrcHis vector) (N); made in house; host or cells: E. coli BL21
T2 sequence (P05091 18-517): T1 sequence (P05091 18-517 E504K) with K487E
Source text: as §1, §2, §3

ALDH2 (mutant) [1] | ALDH2 (wild-type) [2] | Structure (SMILES)
+ | + | O=C(NCc1ccc(F)c(F)c1)c1c(Cl)cccc1Br [Compound 153]
− | + | O=C(NCc1ccc2ocnc2c1)c1c(Cl)ccnc1OCC1CC1 [Compound 260]
+ | ++ | COc1ccc(CNC(=O)c2c(Cl)cccc2Br)cc1 [Compound 108]
+ | + | COc1ccc(CNC(=O)c2ccc(Br)cc2C)cc1 [Compound 116]
+ | ++ | CCC(C)Oc1nccc(Cl)c1C(=O)NCc1ccc(OC)c(F)c1 (centres unmarked) [Compound 202]
+ | + | COc1ccc(CNC(=O)c2c(C(F)(F)F)ccnc2OCC2CCCC2)cc1F [Compound 230]
++ | + | COc1ccc(CNC(=O)c2c(OCC3CC3)ccnc2OCC2CC2)cc1F [Compound 162]
++ | ++ | COc1ccc(CNC(=O)c2c(Cl)ccnc2SC)cc1F [Compound 213]
+ | + | COc1ccc(CNC(=O)c2c(Cl)cccc2Cl)cc1Cl [Compound 100]
+ | + | Cc1nc2ccc(CNC(=O)c3c(Cl)ccnc3OCC3CC3)cc2[nH]1 [Compound 261]
+ | + | COc1ccc(CNC(=O)c2ccccc2Cl)cc1F [Compound 121]
++ | + | COc1ccc(CNC(=O)c2c(Cl)ccnc2NCC(C)C)cc1F [Compound 182]
− | − | COc1ccc(CNC(=O)c2c(Cl)cccc2NCc2cccc(C)c2)cc1F [Compound 129]
+ | + | COc1ccc(CNC(=O)c2c(C(F)(F)F)ccnc2OC(C)C)cc1F [Compound 227]
++ | + | O=C(NCc1ccc(F)c(F)c1)c1c(Cl)cccc1OCC1CC1 [Compound 155]
+ | − | COc1ccc(CNC(=O)c2c(Cl)cccc2Br)cc1O [Compound 105]
+ | + | COc1ccc(CNC(=O)c2c(C)ccnc2OC2CCC2)cc1F [Compound 238]
+ | + | CCS(=O)(=O)c1nccc(Cl)c1C(=O)NCc1ccc(OC)c(F)c1 [Compound 220]
+ | + | COc1ccc(CNC(=O)c2c(Cl)ccnc2NCC(C)O)cc1F (centres unmarked) [Compound 185]
+ | + | COc1ccc(CNC(=O)c2c(Cl)ccnc2S(C)(=O)=O)cc1F [Compound 219]
+ | + | COc1ccc(CNC(=O)c2c(C)cccc2Br)cc1 [Compound 113]

The next lines start with the compound.

Structure (SMILES) | ALDH2 (mutant) [1] | ALDH2 (wild-type) [2]
COc1ccc(CNC(=O)c2c(OC)ccnc2OCC2CC2)cc1F [Compound 251] | + | +
COc1ccc(CNC(=O)c2c(Cl)cccc2Oc2ccc(C)cc2)cc1F [Compound 132] | + | +
COc1ccc(CNC(=O)c2c(Cl)cccc2NCCO)cc1F [Compound 109] | ++ | +
COc1ccc(CNC(=O)c2c(Cl)ccnc2S(=O)(=O)CC(C)C)cc1F [Compound 224] | + | +
COc1ccc(CNC(=O)c2c(Cl)cccc2OCC2CC2C)cc1F (centres unmarked) [Compound 152] | +++ | +++
COc1ccc(CNC(=O)c2c(Cl)ccnc2OCC2CC2)c(F)c1F [Compound 179] | ++ | +
COc1ccc(CNC(=O)c2c(Cl)ccnc2OCC2CCCN2)cc1F (centres unmarked) [Compound 204] | + | +
COc1ccc(CNC(=O)c2c(Cl)ccnc2OCC2CCNC2)cc1F (centres unmarked) [Compound 205] | + | +
COc1cccc(CNC(=O)c2c(Cl)cccc2Br)c1 [Compound 107] | + | +
COc1ccc(CNC(=O)c2c(C)cccc2C)cc1 [Compound 114] | + | +
COc1ccc(CNC(=O)c2c(Cl)cccc2OCC(C)N(C)C)cc1F (centres unmarked) [Compound 166] | ++ | ++
COc1ccc(C(C)NC(=O)c2c(Cl)ccnc2OCC2CC2)cc1F (centres unmarked) [Compound 249] | + | +
COc1ccc(CNC(=O)c2c(Cl)cccc2Oc2cccc(C)c2)cc1F [Compound 131] | + | +
CCC(C)S(=O)(=O)c1nccc(Cl)c1C(=O)NCc1ccc(OC)c(F)c1 (centres unmarked) [Compound 223] | + | +
COc1ccc(CNC(=O)c2c(Cl)cccc2Cl)cc1O [Compound 101] | + | +
C=CCOc1cccc(Cl)c1C(=O)NCc1ccc(OC)c(F)c1 [Compound 141] | +++ | ++
COc1ccc(CNC(=O)c2c(Cl)ccnc2OC2CC2)cc1F [Compound 196] | ++ | ++
COc1ccc(CNC(=O)c2c(C)ccnc2OCC2CCCC2)cc1F [Compound 236] | + | +
COC(=O)c1cccc(Oc2cccc(Cl)c2C(=O)NCc2ccc(OC)c(F)c2)c1 [Compound 158] | + | ++
COc1ccc(CNC(=O)c2c(C)ccnc2OCC2CCC2)cc1F [Compound 235] | + | +
COc1c(F)cc(CNC(=O)c2c(Cl)ccnc2OCC(C)C)cc1F [Compound 252] | + | +
COc1ccc(CNC(=O)c2c(Cl)ccnc2OCC2(C)CC2)cc1F [Compound 178] | ++++ | ++++
COc1ccc(CNC(=O)c2c(Cl)ccn(C)c2=O)cc1F [Compound 273] | + | +
COCCOc1cccc(Cl)c1C(=O)NCc1ccc(OC)c(F)c1 [Compound 143] | ++ | ++
COc1ccc(CNC(=O)c2c(Cl)ccnc2OC(C)C)cc1F [Compound 195] | ++ | ++
COc1ccc(CNC(=O)c2cc(Br)ccc2C)cc1 [Compound 115] | + | +
COc1ccc(CNC(=O)c2c(Cl)ccnc2OCC2CCCC2)cc1F [Compound 200] | ++ | ++
CS(=O)(=O)c1ccc(CNC(=O)c2c(Cl)ccnc2OCC2CC2)cc1F [Compound 253] | + | +
